# Source: ChEMBL document CHEMBL1138729, “Aminoimidazo[1,2-a]pyridines as a new structural class of cyclin-dependent kinase inhibitors. Part 1: Design, synthesis, and biological evaluation” (Bioorg Med Chem Lett, 2004)
# Assays:
# [1] = target: Cyclin-dependent kinase 2 (Homo sapiens, UniProt P24941); test: Inhibitory activity against Cyclin-dependent kinase 2 (CDK2)
# [2] = Inhibitory activity against Cyclin-dependent kinase 1 (CDK1)
# [3] = target: Cyclin-dependent kinase 4 (Homo sapiens, UniProt P11802); test: Inhibitory activity against Cyclin-dependent kinase 4 (CDK4)
# Chain of Cyclin-dependent kinase 4 (P11802 whole entry): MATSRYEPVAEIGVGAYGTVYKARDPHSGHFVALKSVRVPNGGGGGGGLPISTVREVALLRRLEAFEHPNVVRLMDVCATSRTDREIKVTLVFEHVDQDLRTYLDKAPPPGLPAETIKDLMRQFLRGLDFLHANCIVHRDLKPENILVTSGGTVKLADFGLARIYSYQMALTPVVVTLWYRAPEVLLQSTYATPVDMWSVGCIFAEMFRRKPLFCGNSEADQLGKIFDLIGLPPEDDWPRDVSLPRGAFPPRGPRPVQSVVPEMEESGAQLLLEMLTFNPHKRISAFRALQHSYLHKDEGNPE
Structure (SMILES),IC50 [1] [nM],IC50 [2] [nM],IC50 [3] [nM]
Nc1nc2ccc(C(=O)c3c(F)cccc3F)cn2c1C(=O)c1ccc(Cl)cc1,1710,,
COc1ccccc1C(=O)c1c(N)nc2ccc(C(=O)c3c(F)cccc3F)cn12,68,475,1970
Nc1nc2ccc(/C(=C/c3nn[nH]n3)c3c(F)cccc3F)cn2c1C(=O)c1c(F)cccc1F,1690,96,1700
Nc1nc2ccc(C(=O)c3c(F)cccc3F)cn2c1C(=S)c1c(F)cccc1F,26,105,786
Cc1ccccc1C(=O)c1ccc2nc(N)c(C(=O)c3c(F)cccc3F)n2c1,1290,,
Nc1nc2ccc(C(=O)c3ccccc3C(F)(F)F)cn2c1C(=O)c1c(F)cccc1F,1070,,
Nc1nc2ccc(C(=O)c3c(F)cccc3F)cn2c1C(=O)c1cccs1,547,,
COc1cccc(OC)c1C(=S)c1c(N)nc2ccc(C(=O)c3c(F)cccc3F)cn12,462,,
COc1ccccc1C(=O)c1ccc2nc(N)c(C(=O)c3c(F)cccc3F)n2c1,603,,
Nc1nc2ccc(C(=O)c3c(F)cccc3F)cn2c1C(=O)c1c(F)cccc1F,122,57,1080
N#C/C=C(\c1ccc2nc(N)c(C(=O)c3c(F)cccc3F)n2c1)c1c(F)cccc1F,896,,
Nc1nc2ccc(C(=O)c3ccccc3OC(F)(F)F)cn2c1C(=O)c1c(F)cccc1F,2170,,
Nc1nc2ccc(C(=O)c3c(F)cccc3F)cn2c1C(=O)c1ccccc1,,,5050
Nc1nc2ccc(C(=O)c3ccccc3)cn2c1C(=O)c1c(F)cccc1F,1930,,
Nc1nc2ccc(C(=O)c3c(F)cccc3F)cn2c1C(=O)c1ccncc1,2540,,
N#C/C=C(/c1ccc2nc(N)c(C(=O)c3c(F)cccc3F)n2c1)c1c(F)cccc1F,160,53,1550
Nc1nc2ccc(C(=O)c3c(F)cccc3F)cn2c1C(=S)c1ccccc1,214,165,1890
Nc1nc2ccc(C(=O)c3ccccc3Cl)cn2c1C(=O)c1c(F)cccc1F,428,,
C=C(c1ccc2nc(N)c(C(=O)c3c(F)cccc3F)n2c1)c1c(F)cccc1F,63,93,1030

# The next lines start with the values.
IC50 [1] [nM],IC50 [2] [nM],IC50 [3] [nM],Structure (SMILES)
33,104,810,Nc1nc2ccc(C(=O)c3c(F)cccc3Cl)cn2c1C(=O)c1c(F)cccc1F
102,239,827,Nc1nc2ccc(C(=O)c3c(F)cccc3F)cn2c1C(=O)c1c(F)cccc1Cl
29,143,464,COc1cc(F)c(C(=S)c2c(N)nc3ccc(C(=O)c4c(F)cccc4F)cn23)c(F)c1
812,,,CN1CCN(CCOc2cc(F)c(C(=O)c3c(N)nc4ccc(C(=O)c5c(Cl)cccc5Cl)cn34)c(F)c2)CC1
121,209,359,Nc1nc2ccc(C(=O)c3c(F)cccc3F)cn2c1C(=O)c1c(Cl)cccc1Cl
984,,,CN(C)CCOc1cc(F)c(C(=O)c2c(N)nc3ccc(C(=O)c4c(Cl)cccc4Cl)cn23)c(F)c1
46,154,1140,NC(=O)c1cc(F)c(C(=O)c2c(N)nc3ccc(C(=O)c4c(Cl)cccc4Cl)cn23)c(F)c1
53,,,Nc1nc2ccc(C(=O)c3c(Cl)cccc3Cl)cn2c1C(=O)c1c(F)cccc1F
91,132,838,COc1cc(F)c(C(=O)c2c(N)nc3ccc(C(=O)c4c(F)cccc4F)cn23)c(F)c1
52,,,Nc1nc2ccc(C(=O)c3c(Cl)cccc3Cl)cn2c1C(=O)c1c(F)cc(O)cc1F
95,328,2590,Nc1nc2ccc(C(=O)c3c(Cl)cccc3Cl)cn2c1C(=O)c1c(F)cc(C(=O)O)cc1F
